Holding throughout (assay type): cell-based
For one test, the target named is T1, IRAK-4 (Homo sapiens, UniProt Q9NWZ3).
T1 sequence (Q9NWZ3 1-460): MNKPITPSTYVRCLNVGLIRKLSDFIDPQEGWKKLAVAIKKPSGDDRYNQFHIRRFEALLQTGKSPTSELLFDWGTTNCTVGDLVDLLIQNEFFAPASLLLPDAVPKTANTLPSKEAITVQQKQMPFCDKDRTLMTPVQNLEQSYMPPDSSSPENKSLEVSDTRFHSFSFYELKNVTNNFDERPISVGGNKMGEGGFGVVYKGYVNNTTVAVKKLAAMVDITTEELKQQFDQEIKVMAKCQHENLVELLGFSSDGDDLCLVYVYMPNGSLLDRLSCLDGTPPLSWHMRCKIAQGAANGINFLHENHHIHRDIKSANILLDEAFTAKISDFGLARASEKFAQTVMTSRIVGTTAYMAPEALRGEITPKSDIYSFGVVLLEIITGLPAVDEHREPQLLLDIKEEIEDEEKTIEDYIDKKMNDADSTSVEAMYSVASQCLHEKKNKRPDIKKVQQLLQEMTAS
Nature of the test: IRAK-4 ELISA, PBMC degradation. The following applies: treated overnight. Set-up: endogenous in cells; host or cells: PBMC. The method, boiled down:
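Overnight compound treatment, started on the day of plating, of OCI-Ly10 (1×10^6/ml) and PBMC (2×10^6/ml) cultures. Lysates are collected and IRAK-4 content is read by sandwich ELISA.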
In general terms: In an ELISA, binding on a coated surface is turned into a signal by an enzyme label.

Test [1] relates to IL6. Nature of the test: LPS stimulated IL6 inhibition assay in PBMC. The note with it: human PBMCs, LPS stimulation, compound overnight, IL6 by MSD after 24 hrs; for Dmax: read-out: LPS Stim IL6 inhibition Dmax; for IC50: read-out: LPS stim IL6 inhibition IC50. In outline:
(§1)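 Read-out: MSD quantification of IL6 or IL8 in media collected 24 hrs after stimulation. Human PBMCs (2.0×10^6 cells/mL) received compound overnight before stimulant dosing at an EC50 concentration determined per donor.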

Test [2] deals with IL6. The experiment in a line: R848 stimulated IL6 inhibition assay in PBMC. The note with it: human PBMCs, R848 stimulation, compound overnight, IL6 by MSD after 24 hrs; for Dmax: Homo sapiens, 24 h, read-out: R848 stim IL6 inhibition Dmax; for IC50: read-out: R848 stim IL6 inhibition IC50. The method, boiled down: as §1

Molecules are shown by their SMILES.

Usually DC50 stands for the midpoint of the concentration-degradation curve. The term IC50 denotes the concentration at which inhibition is half-maximal.

Turning to `O=C1CCC(N2Cc3c(ccc(N4CC(F)(CN5CCC(n6cc7cc(NC(=O)c8cnn9cccnc89)c(OCC8CC8)cc7n6)CC5)C4)c3F)C2=O)C(=O)N1` (centres unmarked) [Example 250], on IRAK-4, the DC50 was 1 to 5 nM; the Dmax lay within 80 to 90%; the “PBMC DC90” value is “B (B represents a DC90 value ≥10.0 nM and <25.0 nM)”. Also, in the test on IL6 [1] (Homo sapiens, PBMC, 24 h), the Dmax is less than 70% and the IC50 is not below 100 nM. Also, in the test on IL6 [2] (PBMC), the Dmax lay in the range of 80 to 90% and the IC50 was in the range of 10 to 50 nM.

Regarding `O=C1CCC(N2Cc3c(ccc(N4CCC(CN5CCC(N6Cc7cc(NC(=O)c8cnn9cccnc89)c(N8CCN(C9CC(F)(F)C9)CC8)cc7C6=O)CC5)CC4)c3F)C2=O)C(=O)N1` (centres unmarked) [Example 55], on IRAK-4, the DC50 was less than 1 nM, the Dmax was not below 90% and the “PBMC DC90” value was “A (A represents a DC90 value <10.0 nM)”. Further, in the test with IL6 [1] (Homo sapiens, PBMC, 24 h), the Dmax was less than 70% and the IC50 is less than 10 nM. Also, in the test on IL6 [2] (PBMC), the Dmax is not below 90% and the IC50 lay in the range of 10 to 50 nM.

Consider `CN1CC(Oc2cc3nn(C4CCN(CC5(F)CN(c6ccc7c(c6)C(=O)N(C6CCC(=O)NC6=O)C7=O)C5)CC4)cc3cc2NC(=O)c2cnn3cccnc23)C1` (centres unmarked) [Example 263], for which, on IRAK-4, the DC50 is not below 10 nM, the Dmax is not below 90% and the “PBMC DC90” value is listed as “A (A represents a DC90 value <10.0 nM)”. For the same molecule, in the test on IL6 [1] (Homo sapiens, PBMC, 24 h), the Dmax is less than 70% and the IC50 is less than 10 nM. Also, in the test with IL6 [2] (PBMC), the Dmax was not below 90% and the IC50 fell in the range of 10 to 50 nM.

As for `O=C1CCC(N2Cc3ccc(N4CCC(CN5CCC(N6Cc7cc(NC(=O)c8cnn9cccnc89)c(N8CCC(N9CCC9)CC8)cc7C6=O)CC5)CC4)cc3C2=O)C(=O)N1` (centres unmarked) [Example 49], at IRAK-4, the DC50 was less than 1 nM, the Dmax is not below 90% and the “PBMC DC90” value was “A (A represents a DC90 value <10.0 nM)”. Also, in the test with IL6 [1] (Homo sapiens, PBMC, 24 h), the Dmax was not below 90% and the IC50 is less than 10 nM. Further, in the test with IL6 [2] (PBMC), the Dmax is not below 90% and the IC50 was less than 10 nM.

For `O=C1CCC(N2Cc3cc(N4CCC(CN5CCC(n6cc7cc(NC(=O)c8cnn9cccnc89)c(OCC(F)F)cc7n6)CC5)CC4)ccc3C2=O)C(=O)N1` (centres unmarked) [Example 156], on IRAK-4, the DC50 was less than 1 nM, the “PBMC DC90” value was “A (A represents a DC90 value <10.0 nM)” and the “PBMC Dmax” value is recorded as “A (A represents a Dmax value ≥90)”. For the same molecule, in the test with IL6 [1], the “LPS Stim IL6 inhibition Dmax” value was “C (C represents a Ymax value ≥70 and <80)”; the IC50 was less than 10 nM. Further, in the test with IL6 [2], the “R848 stim IL6 inhibition Dmax” value is “A (A represents a Ymax value ≥90)” and the IC50 is less than 10 nM.

With `CN(C1CN(c2ccc3c(c2F)CN(C2CCC(=O)NC2=O)C3=O)C1)[C@H]1CC[C@H](n2cc3cc(NC(=O)c4cnn5cccnc45)c(OCC4CC4)cc3n2)CC1` (some centres unmarked) [Example 361], at IRAK-4, the DC50 is less than 1 nM, the Dmax was not below 90% and the “PBMC DC90” value is given as “A (A represents a DC90 value <10.0 nM)”. Also, in the test with IL6 [1] (Homo sapiens, PBMC, 24 h), the Dmax was in the range of 80 to 90% and the 50% inhibitory concentration (IC50) was less than 10 nM. In addition, in the test on IL6 [2] (PBMC), the Dmax is not below 90% and the IC50 is less than 10 nM.

In the case of `CN(C1CN(c2ccc(C(=O)NC3CCC(=O)NC3=O)c(F)c2)C1)[C@H]1CC[C@H](n2cc3cc(NC(=O)c4cnn5cccnc45)c(OCC4CC4)cc3n2)CC1` (some centres unmarked) [Example 368], at IRAK-4, the DC50 was 1 to 5 nM, the Dmax is not below 90% and the “PBMC DC90” value is “A (A represents a DC90 value <10.0 nM)”. Also, in the test on IL6 [1] (Homo sapiens, PBMC, 24 h), the Dmax was in the range of 70 to 80% and the IC50 is 10 to 50 nM. In the test on IL6 [2] (PBMC), the Dmax was not below 90% and the IC50 lay within 10 to 50 nM.

Regarding `O=C1CCC(N2Cc3cc(F)c(N4CC(F)(CN5CCC(n6cc7cc(NC(=O)c8cnn9cccnc89)c(OCC8CC8)cc7n6)CC5)C4)cc3C2=O)C(=O)N1` (centres unmarked) [Example 269, N-[6-(cyclopropylmethoxy)-2-[1-({1-[2-(2,6-dioxopiperidin-3-yl)-6-fluoro-3-oxo-2,3-dihydro-1H-isoindol-5-yl]-3-fluoroazetidin-3-yl}methyl)piperidin-4-yl]-2H-indazol-5-yl]pyrazolo[1,5-a]pyrimidine-3-carboxamide], at IRAK-4, the DC50 was 1 to 5 nM, the Dmax is 80 to 90% and the “PBMC DC90” value is reported as “A (A represents a DC90 value <10.0 nM)”. Also, in the test with IL6 [1] (Homo sapiens, PBMC, 24 h), the Dmax fell in the range of 80 to 90% and the IC50 was in the range of 10 to 50 nM. Moreover, in the test on IL6 [2] (PBMC), the Dmax was not below 90% and the IC50 fell in the range of 10 to 50 nM.

Consider `O=C1CCC(N2C(=O)c3ccc(N4CCC5(CC4)CN([C@H]4CC[C@H](n6cc7cc(NC(=O)c8cnn9cccnc89)c(OCC8CC8)cc7n6)CC4)C5)cc3C2=O)C(=O)N1` (some centres unmarked) [Example 353], for which, on IRAK-4, the DC50 fell in the range of 1 to 5 nM; the Dmax was 80 to 90%; the “PBMC DC90” value is “B (B represents a DC90 value ≥10.0 nM and <25.0 nM)”. In addition, in the test with IL6 [1] (Homo sapiens, PBMC, 24 h), the Dmax is 70 to 80% and the IC50 was 10 to 50 nM. In the test with IL6 [2] (PBMC), the Dmax was not below 90% and the IC50 fell in the range of 10 to 50 nM.

In the case of `O=C1CCC(N2C(=O)c3ccc(N4CCCC5(C4)CN([C@H]4CC[C@H](n6cc7cc(NC(=O)c8cnn9cccnc89)c(OCC8CC8)cc7n6)CC4)C5)cc3C2=O)C(=O)N1` (some centres unmarked) [Example 418], on IRAK-4, the DC50 is less than 1 nM, the Dmax lay within 80 to 90% and the “PBMC DC90” value is recorded as “A (A represents a DC90 value <10.0 nM)”. For the same molecule, in the test with IL6 [1] (Homo sapiens, PBMC, 24 h), the Dmax was in the range of 80 to 90% and the IC50 was 10 to 50 nM. In addition, in the test with IL6 [2] (PBMC), the Dmax is not below 90% and the IC50 is less than 10 nM.

Regarding `CC(C)Oc1cc2c(cc1NC(=O)c1cnn3cccnc13)CN(C[C@@H](F)C1CN(CC3CCN(c4ccc5c(c4)C(=O)N(C4CCC(=O)NC4=O)C5=O)CC3)C1)C2=O` (some centres unmarked) [Example 19], at IRAK-4, the DC50 lay within 1 to 5 nM, the Dmax lay in the range of 80 to 90% and the “PBMC DC90” value was “A (A represents a DC90 value <10.0 nM)”. Besides, in the test with IL6 [1] (Homo sapiens, PBMC, 24 h), the Dmax was 80 to 90% and the IC50 lay in the range of 10 to 50 nM. Moreover, in the test on IL6 [2] (PBMC), the Dmax is not below 90% and the IC50 lay in the range of 10 to 50 nM.

For `CN(C1CCN(c2ccc3c(c2)C(=O)N(C2CCC(=O)NC2=O)C3=O)CC1)[C@H]1CC[C@H](n2cc3cc(NC(=O)c4cnn5cccnc45)c(OCC(F)F)cc3n2)CC1` (some centres unmarked) [Example 358], on IRAK-4, the DC50 was less than 1 nM, the Dmax is less than 70% and the “PBMC DC90” value is on record as “A (A represents a DC90 value <10.0 nM)”. For the same molecule, in the test on IL6 [1] (Homo sapiens, PBMC, 24 h), the Dmax lay within 70 to 80% and the IC50 is less than 10 nM. In the test with IL6 [2] (PBMC), the Dmax is not below 90% and the IC50 is less than 10 nM.

`CC(C)Oc1cc2c(cc1NC(=O)c1cnn3cccnc13)CN(C1CCN(CC3CCN(c4ccc(F)c(C(=O)NC5CCC(=O)NC5=O)c4)CC3)CC1)C2=O` (centres unmarked) [Example 303]: at IRAK-4, the DC50 lay in the range of 5 to 10 nM; the Dmax is 80 to 90%; the “PBMC DC90” value is “C (C represents a DC90 value ≥25.0 nM and <50 nM)”. For the same molecule, in the test with IL6 [1] (Homo sapiens, PBMC, 24 h), the Dmax fell in the range of 70 to 80% and the IC50 is 10 to 50 nM. In the test on IL6 [2] (PBMC), the Dmax was not below 90% and the half-maximal inhibitory concentration (IC50) lay within 10 to 50 nM.

In the case of `O=C1CCC(N2C(=O)c3ccc(N4CCC(CN5CCC(n6cc7cc(NC(=O)c8cnn9cccnc89)c(N8CCN(CC(F)F)CC8)cc7n6)CC5)CC4)cc3C2=O)C(=O)N1` (centres unmarked) [Example 159], at IRAK-4, the half-maximal degradation concentration (DC50) was 1 to 5 nM, the Dmax is not below 90% and the “PBMC DC90” value is on record as “A (A represents a DC90 value <10.0 nM)”. Moreover, in the test with IL6 [1] (Homo sapiens, PBMC, 24 h), the Dmax was in the range of 70 to 80% and the IC50 lay within 10 to 50 nM. In the test on IL6 [2] (PBMC), the Dmax is not below 90% and the IC50 lay in the range of 10 to 50 nM.

The record behind these values is patent publication US20230099344A1, “COMPOUNDS AND METHODS FOR THE TARGETED DEGRADATION OF IRAK-4” (Arvinas Operations, Inc., priority 2021, published 2023).
